Assay results reported in ChEMBL document CHEMBL3885881, “DrugMatrix”.

Species on record: Rattus norvegicus
Assay: DrugMatrix - Regimen: Daily Repeat
Format: toxicity, organism-based, Sprague-Dawley
Design: regimen Daily Repeat, gender Male, age 6-8 weeks
Details: in vivo, po, route oral GAVAGE, […]; for ABSOLUTE BASOPHIL / ABSOLUTE EOSINOPHIL / ABSOLUTE LYMPHOCYTE / ABSOLUTE MONOCYTE / ABSOLUTE SEGMENTED NEUTROPHIL / BASOPHIL / EOSINOPHIL / HEMATOCRIT / HEMOGLOBIN / LEUKOCYTE COUNT / LYMPHOCYTE / MEAN CORPUSCULAR HEMOGLOBIN / MEAN CORPUSCULAR HEMOGLOBIN CONCENTRATION / MEAN CORPUSCULAR VOLUME / MONOCYTE / NEUTROPHIL / NUCLEATED RED BLOOD CELLS / PLATELET COUNT: tissue Blood; for ALANINE AMINOTRANSFERASE / ALBUMIN / ALKALINE PHOSPHATASE / ASPARTATE AMINOTRANSFERASE / BLOOD UREA NITROGEN / CARBON DIOXIDE / CHLORIDE / CHOLESTEROL / CREATINE PHOSPHOKINASE / CREATININE / GLUCOSE / LACTATE DEHYDROGENASE / LIPASE / PHOSPHORUS / POTASSIUM / SODIUM / TOTAL BILIRUBIN / TOTAL PROTEIN / URIC ACID: tissue Plasma
[1] = 1 mg/kg, 72 h, dose level Low, time 3 day
[2] = 1 mg/kg, 120 h, dose level Low, time 5 day
[3] = 21 mg/kg, 72 h, dose level High, time 3 day
[4] = 21 mg/kg, 120 h, dose level High, time 5 day

With `O=C(CCCN1CCC(O)(c2ccc(Cl)cc2)CC1)c1ccc(F)cc1` [HALOPERIDOL] the “ABSOLUTE BASOPHIL” value [1] was 0 CELLS/uL, the “ABSOLUTE EOSINOPHIL” value [1] was 94.33 CELLS/uL and the “ABSOLUTE LYMPHOCYTE” value [1] was 11131.67 CELLS/uL. For the same compound, the “ABSOLUTE MONOCYTE” value [1] was 120.67 CELLS/uL, the “ABSOLUTE SEGMENTED NEUTROPHIL” value [1] was 1053.33 CELLS/uL and the BASOPHIL [1] was 0%. For the same compound, the EOSINOPHIL [1] was 0.67%, the HEMATOCRIT [1] was 33.6% and the HEMOGLOBIN [1] was 13.7 G/DL. The “LEUKOCYTE COUNT” value [1] was 12.4 x10E3/uL, the LYMPHOCYTE [1] was 88.33% and the “MEAN CORPUSCULAR HEMOGLOBIN” value [1] was 25.53 pg. For the same compound, the “MEAN CORPUSCULAR HEMOGLOBIN CONCENTRATION” value [1] was 40.8 G/DL, the “MEAN CORPUSCULAR VOLUME” value [1] was 62.6 fL and the MONOCYTE [1] was 1%. For the same compound, the NEUTROPHIL [1] was 10%, the “NUCLEATED RED BLOOD CELLS” value [1] was 0 /100WBC and the “PLATELET COUNT” value [1] was 969 x10E3/uL. The “ALANINE AMINOTRANSFERASE” value [1] was 88.67 u/L, the ALBUMIN [1] was 3.97 G/DL and the “ALKALINE PHOSPHATASE” value [1] was 450 u/L. For the same compound, the “ASPARTATE AMINOTRANSFERASE” value [1] was 97.33 u/L, the “BLOOD UREA NITROGEN” value [1] was 12.33 mg/dL and the “CARBON DIOXIDE” value [1] was 31.67 mmol/L. The CHLORIDE [1] was 97 MEQ/L, the CHOLESTEROL [1] was 75.67 mg/dL and the “CREATINE PHOSPHOKINASE” value [1] was 318.67 u/L. For the same compound, the CREATININE [1] was 0.13 mg/dL, the GLUCOSE [1] was 163.67 mg/dL and the “LACTATE DEHYDROGENASE” value [1] was 170 u/L. For the same compound, the LIPASE [1] was 15 u/L, the PHOSPHORUS [1] was 11.33 mg/dL and the POTASSIUM [1] was 6.08 MEQ/L. For the same compound, the SODIUM [1] was 142.45 MEQ/L, the “TOTAL BILIRUBIN” value [1] was 0.17 mg/dL and the “TOTAL PROTEIN” value [1] was 5.67 G/DL. For the same compound, the “URIC ACID” value [1] was 1 mg/dL, the “ABSOLUTE BASOPHIL” value [2] was 0 CELLS/uL and the “ABSOLUTE EOSINOPHIL” value [2] was 0 CELLS/uL. For the same compound, the “ABSOLUTE LYMPHOCYTE” value [2] was 12900 CELLS/uL, the “ABSOLUTE MONOCYTE” value [2] was 131.67 CELLS/uL and the “ABSOLUTE SEGMENTED NEUTROPHIL” value [2] was 1068.33 CELLS/uL. It also gave a BASOPHIL [2] of 0%, an EOSINOPHIL [2] of 0% and an HEMATOCRIT [2] of 34.63%. The HEMOGLOBIN [2] was 14.03 G/DL, the “LEUKOCYTE COUNT” value [2] was 14.1 x10E3/uL and the LYMPHOCYTE [2] was 91.67%. The “MEAN CORPUSCULAR HEMOGLOBIN” value [2] was 25.73 pg, the “MEAN CORPUSCULAR HEMOGLOBIN CONCENTRATION” value [2] was 40.5 G/DL and the “MEAN CORPUSCULAR VOLUME” value [2] was 63.57 fL. The MONOCYTE [2] was 1%, the NEUTROPHIL [2] was 7.33% and the “NUCLEATED RED BLOOD CELLS” value [2] was 0 /100WBC. The “PLATELET COUNT” value [2] was 1083 x10E3/uL, the “ALANINE AMINOTRANSFERASE” value [2] was 51 u/L and the ALBUMIN [2] was 4.17 G/DL. For the same compound, the “ALKALINE PHOSPHATASE” value [2] was 383.33 u/L, the “ASPARTATE AMINOTRANSFERASE” value [2] was 81.33 u/L and the “BLOOD UREA NITROGEN” value [2] was 16.33 mg/dL. For the same compound, the “CARBON DIOXIDE” value [2] was 25.67 mmol/L, the CHLORIDE [2] was 102 MEQ/L and the CHOLESTEROL [2] was 77.33 mg/dL. For the same compound, the “CREATINE PHOSPHOKINASE” value [2] was 323.67 u/L, the CREATININE [2] was 0.18 mg/dL and the GLUCOSE [2] was 144 mg/dL. For the same compound, the “LACTATE DEHYDROGENASE” value [2] was 223.33 u/L, the LIPASE [2] was 11.33 u/L and the PHOSPHORUS [2] was 10.8 mg/dL. For the same compound, the POTASSIUM [2] was 6.15 MEQ/L, the SODIUM [2] was 143.13 MEQ/L and the “TOTAL BILIRUBIN” value [2] was 0.17 mg/dL. The “TOTAL PROTEIN” value [2] was 5.77 G/DL, the “URIC ACID” value [2] was 1.17 mg/dL and the “ABSOLUTE BASOPHIL” value [3] was 0 CELLS/uL. The “ABSOLUTE EOSINOPHIL” value [3] was 71.67 CELLS/uL, the “ABSOLUTE LYMPHOCYTE” value [3] was 13503.67 CELLS/uL and the “ABSOLUTE MONOCYTE” value [3] was 143.33 CELLS/uL. The “ABSOLUTE SEGMENTED NEUTROPHIL” value [3] was 1014.67 CELLS/uL, the BASOPHIL [3] was 0% and the EOSINOPHIL [3] was 0.33%. The HEMATOCRIT [3] was 37.23%, the HEMOGLOBIN [3] was 14.77 G/DL and the “LEUKOCYTE COUNT” value [3] was 14.73 x10E3/uL. The LYMPHOCYTE [3] was 92.33%, the “MEAN CORPUSCULAR HEMOGLOBIN” value [3] was 23.97 pg and the “MEAN CORPUSCULAR HEMOGLOBIN CONCENTRATION” value [3] was 39.67 G/DL. The “MEAN CORPUSCULAR VOLUME” value [3] was 60.4 fL, the MONOCYTE [3] was 0.67% and the NEUTROPHIL [3] was 6.67%. For the same compound, the “NUCLEATED RED BLOOD CELLS” value [3] was 0 /100WBC, the “PLATELET COUNT” value [3] was 1422.33 x10E3/uL and the “ALANINE AMINOTRANSFERASE” value [3] was 42.33 u/L. The ALBUMIN [3] was 4.2 G/DL, the “ALKALINE PHOSPHATASE” value [3] was 358.33 u/L and the “ASPARTATE AMINOTRANSFERASE” value [3] was 92.33 u/L. For the same compound, the “BLOOD UREA NITROGEN” value [3] was 16.33 mg/dL, the “CARBON DIOXIDE” value [3] was 22.67 mmol/L and the CHLORIDE [3] was 103.67 MEQ/L. For the same compound, the CHOLESTEROL [3] was 58 mg/dL, the “CREATINE PHOSPHOKINASE” value [3] was 803 u/L and the CREATININE [3] was 0.18 mg/dL. For the same compound, the GLUCOSE [3] was 168 mg/dL, the “LACTATE DEHYDROGENASE” value [3] was 310 u/L and the LIPASE [3] was 11.33 u/L. The PHOSPHORUS [3] was 12.4 mg/dL, the POTASSIUM [3] was 6.38 MEQ/L and the SODIUM [3] was 143.4 MEQ/L. The “TOTAL BILIRUBIN” value [3] was 0.13 mg/dL, the “TOTAL PROTEIN” value [3] was 5.9 G/DL and the “URIC ACID” value [3] was 2.07 mg/dL. For the same compound, the “ABSOLUTE BASOPHIL” value [4] was 0 CELLS/uL, the “ABSOLUTE EOSINOPHIL” value [4] was 46.33 CELLS/uL and the “ABSOLUTE LYMPHOCYTE” value [4] was 13529.67 CELLS/uL. For the same compound, the “ABSOLUTE MONOCYTE” value [4] was 94 CELLS/uL, the “ABSOLUTE SEGMENTED NEUTROPHIL” value [4] was 1530 CELLS/uL and the BASOPHIL [4] was 0%. For the same compound, the EOSINOPHIL [4] was 0.33%, the HEMATOCRIT [4] was 35.97% and the HEMOGLOBIN [4] was 14.07 G/DL. The “LEUKOCYTE COUNT” value [4] was 15.2 x10E3/uL, the LYMPHOCYTE [4] was 88.67% and the “MEAN CORPUSCULAR HEMOGLOBIN” value [4] was 23.57 pg. For the same compound, the “MEAN CORPUSCULAR HEMOGLOBIN CONCENTRATION” value [4] was 39.13 G/DL, the “MEAN CORPUSCULAR VOLUME” value [4] was 60.3 fL and the MONOCYTE [4] was 0.67%. For the same compound, the NEUTROPHIL [4] was 10.33%, the “NUCLEATED RED BLOOD CELLS” value [4] was 0.33 /100WBC and the “PLATELET COUNT” value [4] was 1209.33 x10E3/uL. For the same compound, the “ALANINE AMINOTRANSFERASE” value [4] was 53 u/L, the ALBUMIN [4] was 4.13 G/DL and the “ALKALINE PHOSPHATASE” value [4] was 352.33 u/L. For the same compound, the “ASPARTATE AMINOTRANSFERASE” value [4] was 80.33 u/L, the “BLOOD UREA NITROGEN” value [4] was 17.33 mg/dL and the “CARBON DIOXIDE” value [4] was 23 mmol/L. The CHLORIDE [4] was 103.33 MEQ/L, the CHOLESTEROL [4] was 69 mg/dL and the “CREATINE PHOSPHOKINASE” value [4] was 224.67 u/L. The CREATININE [4] was 0.18 mg/dL, the GLUCOSE [4] was 201.67 mg/dL and the “LACTATE DEHYDROGENASE” value [4] was 239 u/L. For the same compound, the LIPASE [4] was 11.33 u/L, the PHOSPHORUS [4] was 11.33 mg/dL and the POTASSIUM [4] was 6.19 MEQ/L. The SODIUM [4] was 143.37 MEQ/L, the “TOTAL BILIRUBIN” value [4] was 0.2 mg/dL and the “TOTAL PROTEIN” value [4] was 5.63 G/DL. The “URIC ACID” value [4] was 1.4 mg/dL.
